Results from patent US20190134005A1 (BioMarin Pharmaceutical Inc., priority 2016, published 2019).
pIC50: −log10 of the molar value. Read-outs that look alike come from different tables or passages of the source.

Molecular target: T1, human CGT (Homo sapiens, UniProt Q16880)
T1 sequence (Q16880 21-541): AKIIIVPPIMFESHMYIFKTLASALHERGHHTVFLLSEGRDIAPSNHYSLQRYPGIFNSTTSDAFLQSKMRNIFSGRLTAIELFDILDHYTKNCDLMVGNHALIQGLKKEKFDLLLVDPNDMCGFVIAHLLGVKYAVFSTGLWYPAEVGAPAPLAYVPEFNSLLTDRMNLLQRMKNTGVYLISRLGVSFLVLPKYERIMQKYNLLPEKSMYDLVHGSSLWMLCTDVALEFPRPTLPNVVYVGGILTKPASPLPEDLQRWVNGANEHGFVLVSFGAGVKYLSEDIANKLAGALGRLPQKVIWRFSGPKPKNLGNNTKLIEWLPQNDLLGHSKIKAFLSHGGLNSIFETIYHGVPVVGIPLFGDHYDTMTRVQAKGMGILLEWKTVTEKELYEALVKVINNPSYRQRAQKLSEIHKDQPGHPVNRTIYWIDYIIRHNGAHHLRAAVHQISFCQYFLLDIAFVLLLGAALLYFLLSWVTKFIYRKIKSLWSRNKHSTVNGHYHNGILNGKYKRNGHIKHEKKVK
Test: Assay 1: CGT Enzymatic Assay (RapidFire/MS/MS, 0.01% Tween 80)
Type: biochemical
Settings: Table 1, Compounds of Formula (I) and Formula (II), CGT enzymatic assay, read-out: IC50

[1] = C6-NBD-dihydro-galactosylceramide readout

## COc1ccc(C2(O)C(=O)N(c3ccc(Br)cc3)C(=O)N2c2ccc(Br)cc2)cc1 (centres unmarked) [Compound 144, 1,3-bis(4-bromophenyl)-5-hydroxy-5-(4-methoxyphenyl)imidazolidine-2,4-dione]
  pIC50: 4.00 to 4.30

## CCCc1c(-c2cccc(Cl)c2)n(-c2ccc(Br)cc2)c(=O)n1-c1ccc(Br)cc1 [Compound 250, 1,3-bis(4-bromophenyl)-4-(3-chlorophenyl)-5-propyl-1,3-dihydro-2H-imidazol-2-one]
  pIC50: > 6.00

## COC[C@@]1(C)N(c2ccc(Cl)cc2)C(=O)N(c2ccc(Cl)cc2)[C@]1(O)c1cccc(OC(F)(F)F)c1 [Compound 296-4, (4S,5R)-1,3-bis(4-chlorophenyl)-4-hydroxy-5-(methoxymethyl)-5-methyl-4-(3-(trifluoromethoxy)phenyl)imidazolidin-2-one]
[1]
  pIC50: > 6.00

## O=C1N(c2ccc(Br)cc2)CC(O)(c2cccs2)N1c1ccc(Br)cc1 (centres unmarked) [Example 7, 1,3-bis(4-bromophenyl)-4-hydroxy-4-(thiophen-2-yl)imidazolidin-2-one]
  pIC50: 5.00 to 6.00

## CC#Cc1cccc(C2(O)C(C)N(c3ccc(Cl)cc3)C(=O)N2c2ccc(Cl)cc2)c1 (centres unmarked) [Compound 103, 1,3-bis(4-chlorophenyl)-4-hydroxy-5-methyl-4-(3-(prop-1-yn-1-yl)phenyl)imidazolidin-2-one]
  pIC50: > 6.00

## C[C@@H]1N(c2ccc(Br)cc2)C(=O)N(c2ccc(Br)cc2)C1(O)c1ccccc1 (some centres unmarked) [Example 13-1]
  pIC50: > 6.00

## CCCCCCC1(O)C(=O)N(c2ccc(Br)cc2)C(=O)N1c1ccc(Br)cc1 (centres unmarked) [Example 157, 1,3-bis(4-bromophenyl)-5-hexyl-5-hydroxyimidazolidine-2,4-dione]
  pIC50: 4.00 to 4.30

## Cc1ccc(N2C(=O)N(c3ccc(C#N)cc3)C(O)(c3cccc(C#N)c3)C23CCC3)cc1 (centres unmarked) [Compound 282, 3-(7-(4-cyanophenyl)-8-hydroxy-6-oxo-5-(p-tolyl)-5,7-diazaspiro[3.4]octan-8-yl)benzonitrile]
[1]
  pIC50: > 6.00

## N#Cc1cccc(C2(O)N(c3ccc(C(F)(F)F)cc3)C(=O)N(c3ccc(C(F)(F)F)cc3)C23COC3)c1 (centres unmarked) [Compound 303, 3-(8-hydroxy-6-oxo-5,7-bis(4-(trifluoromethyl)phenyl)-2-oxa-5,7-diazaspiro[3.4]octan-8-yl)benzonitrile]
[1]
  pIC50: > 6.00

## CC[C@H]1N(c2ccc(Br)cc2)C(=O)N(c2ccc(Br)cc2)C1(O)c1cccc(C(F)(F)F)c1 (stereo partly drawn) [Compound 67-2, (5R)-1,3-bis(4-bromophenyl)-5-ethyl-4-hydroxy-4-(3-(trifluoromethyl)phenyl)imidazolidin-2-one]
  pIC50: > 6.00

## O=C1N(c2ccc(Br)cc2)C(=O)C(O)(c2ccc(OC3CC3)c(Cl)c2)N1c1ccc(Br)cc1 (centres unmarked) [Example 171, 1,3-bis(4-bromophenyl)-5-(3-chloro-4-cyclopropoxyphenyl)-5-hydroxyimidazolidine-2,4-dione]
  pIC50: 4.00 to 4.30

## CC(=O)c1cccc(C2(O)[C@@H](C)N(c3ccc(Cl)cc3)C(=O)N2c2ccc(Cl)cc2)c1 (stereo partly drawn) [Compound 136-2, (5R)-4-(3-acetylphenyl)-1,3-bis(4-chlorophenyl)-4-hydroxy-5-methylimidazolidin-2-one]
  pIC50: > 6.00

## CC[C@H]1N(c2ccc(F)cc2)C(=O)N(c2ccc(F)cc2)C1(O)c1cccc(C(F)(F)F)c1 (single isomer, unassigned) [Compound 139-2]
  pIC50: > 6.00

## CC1(C)N(c2ccc(Cl)cc2)C(=O)N(c2ccc(Cl)cc2)C1(O)c1cc(C#N)cc(C#N)c1 (centres unmarked) [Example 188, 5-(1,3-bis(4-chlorophenyl)-4-hydroxy-5,5-dimethyl-2-oxoimidazolidin-4-yl)isophthalonitrile]
  pIC50: > 6.00

## Cc1cccc(-c2cn(-c3ccc(Cl)cc3)c(=O)n2-c2ccc(Cl)cc2)c1 [Compound 259, 1,3-bis(4-chlorophenyl)-4-(m-tolyl)-1,3-dihydro-2H-imidazol-2-one]
  pIC50: < 4.30

## CC(=O)c1cccc(C2(O)[C@H](C)N(c3ccc(Cl)cc3)C(=O)N2c2ccc(Cl)cc2)c1 (single isomer, unassigned) [Compound 136-1]
  pIC50: 5.00 to 6.00

## N#Cc1ccc(N2C(=O)N(c3ccc(Cl)cc3)C3(CCC3)C2(O)c2cccc(OC(F)(F)F)c2)cc1 (centres unmarked) [Compound 288, 4-(5-(4-chlorophenyl)-8-hydroxy-6-oxo-8-(3-(trifluoromethoxy)phenyl)-5,7-diazaspiro[3.4]octan-7-yl)benzonitrile]
[1]
  pIC50: > 6.00

## N#Cc1ccc(N2C(=O)N(c3ccc(Cl)cc3)C3(COC3)C2(O)c2cccc(OC(F)(F)F)c2)cc1 (centres unmarked) [Compound 274, 4-(5-(4-chlorophenyl)-8-hydroxy-6-oxo-8-(3-(trifluoromethoxy)phenyl)-2-oxa-5,7-diazaspiro[3.4]octan-7-yl)benzonitrile]
[1]
  pIC50: > 6.00

## CCCC1N(c2ccc(Br)cc2)C(=O)N(c2ccc(Br)cc2)C1(O)c1ccccc1 (centres unmarked) [Compound 51]
  pIC50: > 6.00

## O=C1N(c2ccc(Cl)cc2)C2(CC2)C(O)(c2cccc(OC(F)(F)F)c2)N1c1ccc(Cl)cc1 (centres unmarked) [Example 224, 4,6-bis(4-chlorophenyl)-7-hydroxy-7-(3-(trifluoromethoxy)phenyl)-4,6-diazaspiro[2.4]heptan-5-one]
  pIC50: > 6.00

## CCCc1c(CCC)n(-c2ccc(Br)cc2)c(=O)n1-c1ccc(Br)cc1 [Example 22, 1,3-bis(4-bromophenyl)-4,5-dipropyl-1,3-dihydro-2H-imidazol-2-one]
  pIC50: < 4.30

## N#Cc1cccc(C2(O)[C@H](C3CC3)N(c3ccc(Cl)cc3)C(=O)N2c2ccc(Cl)cc2)c1 (stereo partly drawn) [Example 187-1, 3-((5S)-1,3-bis(4-chlorophenyl)-5-cyclopropyl-4-hydroxy-2-oxoimidazolidin-4-yl)benzonitrile]
  pIC50: > 6.00

## C[C@@H]1N(c2ccc(Cl)cc2)C(=O)N(c2ccc(Cl)cc2)C1(O)c1cccc(C(C)(C)O)c1 (stereo partly drawn) [Compound 140-1, (5S)-1,3-bis(4-chlorophenyl)-4-hydroxy-4-(3-(2-hydroxypropan-2-yl)phenyl)-5-methylimidazolidin-2-one]
  pIC50: < 4.30

## CCc1cccc(C2(O)[C@@H](C)N(c3ccc(Br)cc3)C(=O)N2c2ccc(Br)cc2)c1 (stereo partly drawn) [Compound 68-2, (5R)-1,3-bis(4-bromophenyl)-4-(3-ethylphenyl)-4-hydroxy-5-methylimidazolidin-2-one]
  pIC50: > 6.00

## Cc1cc(C)cc(C2(O)[C@H](C)N(c3ccc(Br)cc3)C(=O)N2c2ccc(Br)cc2)c1 (some centres unmarked) [Example 42-1]
  pIC50: > 6.00

## CCC[C@H]1N(c2ccc(Br)cc2)C(=O)N(c2ccc(Br)cc2)C1(O)c1cccc(Cl)c1 (stereo partly drawn) [Compound 119-2, (5R)-1,3-bis(4-bromophenyl)-4-(3-chlorophenyl)-4-hydroxy-5-propylimidazolidin-2-one]
  pIC50: > 6.00

## O=C1N(c2ccc(Br)cc2)C(=O)C(O)(C(F)(F)F)N1c1ccc(Br)cc1 (centres unmarked) [Example 216, 1,3-bis(4-bromophenyl)-5-hydroxy-5-(trifluoromethyl)imidazolidine-2,4-dione]
  pIC50: < 4.30

## CC1(C)N(c2ccc(Cl)cc2)C(=O)N(c2ccc(Cl)cc2)C1(O)c1cccc(C#N)c1 (centres unmarked) [Compound 138, 3-(1,3-bis(4-chlorophenyl)-4-hydroxy-5,5-dimethyl-2-oxoimidazolidin-4-yl)benzonitrile]
  pIC50: > 6.00

## COCC1(C)N(c2ccc(Cl)cc2)C(=O)N(c2ccc(Cl)cc2)C1(O)c1cccc(OC(F)(F)F)c1 (mixture of isomers) [Compound 296, 1,3-bis(4-chlorophenyl)-4-hydroxy-5-(methoxymethyl)-5-methyl-4-(3-(trifluoromethoxy)phenyl)imidazolidin-2-one]
[1]
  pIC50: > 6.00
